Earlier results as cited in patent publication US12637369B2, “Method for selectively removing perfluorinated compounds with electrooxidation” (SK hynix Inc., priority 2021, dated 2026).
≈ marks a conversion by molar mass, not a printed value.

Assays:
[1] = not given; remark: listed apart in the source

## O=S(=O)(O)C(F)(F)C(F)(F)C(F)(F)C(F)(F)F [PFBS, Perfluorobutane sulfonic acid]
other
  Solubility in water: Very high
[1]
  pKa: −3.94

## O=C(O)C(F)(F)C(F)(F)C(F)(F)C(F)(F)C(F)(F)C(F)(F)C(F)(F)C(F)(F)F [PFNA, Perfluorononanoic acid]
other
  Solubility in water: 9500 µg/mL (≈ 20.5 mM)
[1]
  pKa: 2-3

## O=C(O)C(F)(F)C(F)(F)C(F)(F)C(F)(F)C(F)(F)C(F)(F)C(F)(F)F [PFOA, Perfluorooctanoic acid]
other
  Solubility in water: 3400 µg/mL (≈ 8.21 mM)

## O=S(=O)(O)C(F)(F)C(F)(F)C(F)(F)C(F)(F)C(F)(F)C(F)(F)C(F)(F)C(F)(F)F [PFOS, Perfluorooctane sulfonic acid]
other
  Solubility in water: 570 µg/mL (≈ 1.14 mM)
[1]
  pKa: −3.27
